In patent publication US5688957A, “[(3"-thioxacyclohex-1"-enyl)]-but-3'-ene-1'-ynyl]aryl and [(3"-thioxacyclohex-1"-enyl)]-but-3'-ene-1'-ynyl]heteroaryl carboxylic acids and esters having retinoid-like biological activity” (Allergan, priority 1995, dated 1997):

System: ornithine decarboxylase (ODC)
Assay: inhibition of TPA induction of ornithine decarboxylase (ODC) activity
Type: in vivo
Conditions: for IC80: IC80 column; for IC60: concentration which results in 60% inhibition
Text: The retinoid-like activity of these compounds is confirmed through the classic measure of retinoic acid activity involving the effects of retinoic acid on ornithine decarboxylase. The original work on the correlation between retinoic acid and decrease in cell proliferation was done by Verma & Boutwell, Cancer Research, 1977, 37,2196-2201. That reference discloses that ornithine decarboxylase (ODC) activity increased precedent to polyamine biosynthesis. It has been established elsewhere that increases in polyamine synthesis can be correlated or associated with cellular proliferation. Thus, if ODC activity could be inhibited, cell hyperproliferation could be modulated. Although all causes for ODC activity increases are unknown, it is known that 12-0-tetradecanoylphorbol-13-acetate (TPA) induces ODC activity. Retinoic acid inhibits this induction of ODC activity by TPA. […] The results of this assay for certain exemplary compounds of the invention are shown in Table 1 below, wherein either the IC80 or IC60 value for each exemplary compound is indicated in namolar concentration units. (As is known in the art, the IC60 value is that concentration of the compound (in nanomols) which results in 60% inhibition.)

SMILES | IC80 [nM] | IC60 [nM]
CC1=C(/C=C/C#Cc2ccc(C(=O)O)cn2)C(C)(C)CCS1 [Compound 4, 6-[4'-(2",6",6"-Trimethyl-3"-thioxacyclohex-1"-enyl)-but-3'(E) -ene-1'-ynyl]nicotinic Acid] | 33.6 | –
CCOC(=O)c1ccc(C#C/C=C/C2=C(C)SCCC2(C)C)nc1 [Compound 3, Ethyl 6-[4'-(2",6",6"-Trimethyl-3"-thioxacyclohex-1"-enyl)-but-3'(E)-ene-1'-ynyl]nicotinate] | 28 | –
CCOC(=O)c1ccc(C#C/C=C/C2=C(C)SCCC2(C)C)cc1 [Compound 1, Ethyl 4-[4'-(2",6",6",-Trimethyl-3"-thioxacyclohex-1"-enyl)-but-3'(E)-ene-1'-ynyl]benzoate] | – | 3.8
CC1=C(/C=C/C#Cc2ccc(C(=O)O)cc2)C(C)(C)CCS1 [Compound 2, 4-[4'-(2",6",6"-Trimethyl-3"-thioxacyclohex-1"-enyl) -but-3'(E)-ene-1'-ynyl]benzoic Acid] | – | 1.4
